# Source: ChEMBL document CHEMBL1141894, “Synthesis and biological properties of novel sphingosine derivatives” (Bioorg Med Chem Lett, 2005)
# Tested on: HL-60
# Test: Inhibitory concentration against [Ca2+] ion increase in HL60 cell induced by natural sphingosine-1-phosphate
# Assay type: functional, cell-based
# Conditions: Homo sapiens
row,IC50 [nM],SMILES
1,179,N[C@@H](COP(=O)(O)O)[C@@H](O)c1ccccc1
2,56,N[C@@H](COP(=O)(O)O)[C@@H](O)c1ccc([N+](=O)[O-])cc1
3,37,N[C@@H](COP(=O)(O)O)[C@@H](O)/C=C/c1ccccc1
4,15,CSc1ccc([C@H](O)[C@@H](N)COP(=O)(O)O)cc1
5,15,CCCCCCCCCC/C=C/[C@H](O)[C@@H](N)COP(=O)(O)O

row,SMILES,IC50 [nM]
1,CCCCCCCCCCCCC/C=C/[C@H](O)[C@@H](N)COP(=O)(O)O,31
2,N[C@@H](CBr)[C@@H](O)c1ccccc1,71
3,CSc1ccc([C@H](O)[C@@H](N)CBr)cc1,18
